# Results taken from patent US8716293B2, “Macrocyclic integrase inhibitors” (Janssen R&D Ireland, priority 2010, dated 2014).
# Experiments:
# HIV-1 SDM strain Q148R = experiment: cell-based HIV-1 replication assay in MT4-LTR-EGFP cells, Q148R mutant; conditions: fold change in activity against Q148R mutant compared to wild type HIV
# From the text: (§1) MT4-LTR-enhanced green fluorescent protein (EGFP) cells were obtained by transfecting MT4 cells with a selectable construct encompassing the coding sequences for the HIV LTR as a promoter for the expression of EGFP and subsequent selection of permanently transfected cells. MT4-cytomegalovirus (CMV)-EGFP cells were obtained by selection for permanently transformed MT4 cells with a CMV-EGFP reporter gene. Cell lines were maintained in RPMI 1640 medium supplemented with 10% heat-inactivated fetal calf serum, 2 mM L-glutamine, 0.1% NaHCO3, and antibiotics (0.02% gentamicin and 0.8% G418) and incubated in a humidified incubator with a 5% CO2 atmosphere at 37° C.
# (§2) N155H and Q148R mutant Integrase coding sequences were constructed in the pUC19-5′HXB2D vector (XbaI-SalI fragment of pHXB2D), containing the HIV-1 clone HXB2D IN coding sequence, by using a QuikChange site-directed mutagenesis kit (Stratagene, La Jolla, Calif.) and HPLC-purified primers (Genset Oligos, La Jolla, Calif.). Altered plasmid sequences were confirmed by dideoxyribose sequencing. For generation of site-directed mutant (SDM) virus stocks, MT4 cells were subcultured at a density of 250,000 cells/ml on the day before transfection. Cells were pelleted and resuspended in phosphate-buffered saline at a concentration of 3.1×10^6 cells/ml. A 0.8-ml portion ([…]) was used for each transfection. Transfections were performed with a Bio-Rad Gene Pulser (Bio-Rad, Hercules, Calif.) with 0.4-cm electrode cuvettes (Bio-Rad). Cells were electroporated with 10 μg of SalI-linearized pUC19-3′HXB2D (SalI-XbaI fragment of pHXB2D) and 5 μg of SalI-digested SDM at 250 μF and 300 V, followed by a 30-min incubation at room temperature. Ten ml of fresh culture medium was then added to the suspension of transfected cells, and incubation was performed at 37° C. in a humidified atmosphere with 5% CO2. Cell cultures were monitored for the appearance of cytopathic effect (CPE).
# (§3) The inhibitory antiviral activity of different compounds was determined in a cell-based HIV-1 replication assay. MT4-LTR-EGFP cells (150,000 cells/ml) were infected with HIV-1 (IIIB or SDM strains Q148R, N155H, or G140S-Q148H; multiplicity of infection [MOI] of 0.0025) in the presence or absence of inhibitor. After 3 days of incubation, the inhibition of HIV replication was quantified by measuring EGFP fluorescence, and expressed as the compound concentration required for 50% inhibition of HIV-1 replication in cell culture (EC50).
# HIV-1 SDM strain N155H = experiment: cell-based HIV-1 replication assay in MT4-LTR-EGFP cells, N155H mutant; conditions: fold change in activity against N155H mutant compared to wild type HIV
# From the text: as §1, §2, §3
# [1] = system: HIV-1 SDM strain G140S-Q148H; experiment: cell-based HIV-1 replication assay in MT4-LTR-EGFP cells, G140S-Q148H mutant; conditions: fold change in activity against G140S-Q148H mutant compared to wild type HIV
# From the text: as §1, §2, §3
# HIV-1 LAI (IIIB) = experiment: antiviral assay in the presence of 50% human serum; type: cell-based; conditions: MT-4-LTR-EGFP cells, 4 days, resazurin cell viability
# Method: For the antiviral assay in the presence of 50% human serum, MT-4-LTR-EGFP cells were infected with HIV-1 LAI (IIIB) at a MOI of 0.001 to 0.01 CCID50/cell in RPMI1640 medium. Following 1 h of incubation, cells were washed and plated into a 96-well plate containing serial dilutions of test compound in the presence of 10% fetal calf serum or 50% human serum. After 4 days of incubation, the EC50 in the presence of 50% human serum (EC50/HS) was determined by a cell viability assay using resazurin (as described by Fields, R. D., and M. V. Lancaster (1993) Am. Biotechnol. Lab. 11:48-50).
Compound,FC-Q148R (HIV-1 SDM strain Q148R),FC-N155H (HIV-1 SDM strain N155H),FC-G140S-Q148H [1],EC50 (HIV-1 LAI (IIIB)) [nM]
CCN1C[C@H](C)n2c(c(O)c3c(=O)n4nc(c32)N2CCN(CCCCCOc3cc(F)ccc3C4)S2(=O)=O)C1=O [Compound 2a],0.7,25.3,3.3,682
CCN1C[C@H](C)n2c(c(O)c3c(=O)n4nc(c32)N2CCN(CCCCCOc3cc(F)ccc3C4)S2(=O)=O)C1=O [Compound 2b],0.9,8.0,6.2,8
CCN1C[C@H](C)n2c(c(O)c3c(=O)n4nc(c32)N(C)S(=O)(=O)CCCOc2cc(F)ccc2C4)C1=O [Compound 8],3.3,11.7,11.3,10
CCN1C[C@H](C)n2c(c(O)c3c(=O)n4nc(c32)N(C)S(=O)(=O)[C@@H](C)CCCCOc2cc(F)ccc2C4)C1=O [Compound 9],0.4,2.0,1.2,1930
CCN1C[C@H](C)n2c(c(O)c3c(=O)n4nc(c32)N(C)S(=O)(=O)[C@H](C)CCCCOc2cc(F)ccc2C4)C1=O [Compound 10],0.5,2.8,1.2,17
CCN1C[C@H](C)n2c(c(O)c3c(=O)n4nc(c32)N(CC)S(=O)(=O)CCCCOc2cc(F)ccc2C4)C1=O [Compound 11],2.1,5.1,14.3,9
CCN1C[C@H](C)n2c(c(O)c3c(=O)n4nc(c32)N(C2CC2)S(=O)(=O)CCCCOc2cc(F)ccc2C4)C1=O [Compound 12],0.7,3.5,5.1,13
CCN1c2nn(c(=O)c3c(O)c4n(c23)[C@@H](C)CN(C(C)C)C4=O)Cc2ccc(F)cc2OCCCCS1(=O)=O [Compound 13],0.7,3.5,2.6,11
CC(C)N1C[C@H](C)n2c(c(O)c3c(=O)n4nc(c32)N(C2CC2)S(=O)(=O)CCCCOc2cc(F)ccc2C4)C1=O [Compound 14],1.0,3.5,4.3,18
CCN1C[C@H](C)n2c(c(O)c3c(=O)n4nc(c32)N(CC)S(=O)(=O)CCCCCOc2cc(F)ccc2C4)C1=O [Compound 15],0.5,3.4,1.4,33
CCN1C[C@H](C)n2c(c(O)c3c(=O)n4nc(c32)N(C2CC2)S(=O)(=O)CCCCCOc2cc(F)ccc2C4)C1=O [Compound 16],0.6,3.5,1.3,43
CCN1C[C@H](C)n2c(c(O)c3c(=O)n4nc(c32)N(C)S(=O)(=O)CCCCOc2cc(F)c(Cl)cc2C4)C1=O [Compound 17],0.6,4.7,1.9,24
CCN1C[C@H](C)n2c(c(O)c3c(=O)n4nc(c32)N(C)S(=O)(=O)CCCCCOc2cc(F)c(Cl)cc2C4)C1=O [Compound 18],0.8,4.7,1.8,47
CCN1C[C@H](C)n2c(c(O)c3c(=O)n4nc(c32)N(C)S(=O)(=O)CCCCOc2cc(F)c(F)cc2C4)C1=O [Compound 19],1.1,4.9,3.6,8
CCN1C[C@H](C)n2c(c(O)c3c(=O)n4nc(c32)N(C)S(=O)(=O)CCCCCOc2cc(F)c(F)cc2C4)C1=O [Compound 20],0.6,4.8,1.5,17
CCN1C[C@H](C)n2c(c(O)c3c(=O)n4nc(c32)N(C)S(=O)(=O)CCCCCNC(=O)c2cc(F)ccc2C4)C1=O [Compound 21],0.6,6.6,1.9,54

Compound,FC-Q148R (HIV-1 SDM strain Q148R),FC-N155H (HIV-1 SDM strain N155H),FC-G140S-Q148H [1],EC50 (HIV-1 LAI (IIIB)) [nM]
CCN1C[C@H](C)n2c(c(O)c3c(=O)n4nc(c32)N(C)S(=O)(=O)CCCNC(=O)c2cc(F)ccc2C4)C1=O [Compound 23],0.7,9.6,2.1,7
CCN1C[C@H](C)n2c(c(O)c3c(=O)n4nc(c32)C(=O)NCCCCOc2cc(F)ccc2C4)C1=O [Compound 24],4.3,10.4,179.1,11
CCN1C[C@H](C)n2c(c(O)c3c(=O)n4nc(c32)C(=O)NCCCCCOc2cc(Cl)ccc2C4)C1=O [Compound 25],0.3,3.5,3.7,138
CCN1C[C@H](C)n2c(c(O)c3c(=O)n4nc(c32)C(=O)NCCCCCOc2cc(F)c(Cl)cc2C4)C1=O [Compound 26],0.8,4.3,4.1,32
CCN1CCn2c(c(O)c3c(=O)n4nc(c32)C(=O)NCCCCCOc2cc(F)ccc2C4)C1=O [Compound 27],3.0,8.6,668.8,5
C[C@H]1CN(C)C(=O)c2c(O)c3c(=O)n4nc(c3n21)C(=O)NCCCCCOc1cc(F)ccc1C4 [Compound 28],0.9,4.5,17.0,14
CC(C)N1C[C@H](C)n2c(c(O)c3c(=O)n4nc(c32)C(=O)NCCCCCOc2cc(F)ccc2C4)C1=O [Compound 29],0.4,3.8,2.2,19
CCN1C[C@H](C)n2c(c(O)c3c(=O)n4nc(c32)C(=O)N(C)CCCCOc2cc(F)ccc2C4)C1=O [Compound 30],41.1,410.4,572.0,28
CCN1C[C@H](C)n2c(c(O)c3c(=O)n4nc(c32)C(=O)N(C)CCCCCOc2cc(F)c(Cl)cc2C4)C1=O [Compound 32],0.3,4.3,2.6,77
CCN1C[C@H](C)n2c(c(O)c3c(=O)n4nc(c32)C(=O)N(C)CCCCCOc2cc(F)c(F)cc2C4)C1=O [Compound 34],0.4,7.4,5.9,18
CC(C)N1C[C@H](C)n2c(c(O)c3c(=O)n4nc(c32)C(=O)N(C)CCCCCOc2cc(F)ccc2C4)C1=O [Compound 35],0.4,4.8,2.7,30
C[C@H]1CN(C2CC2)C(=O)c2c(O)c3c(=O)n4nc(c3n21)C(=O)NCCCCCOc1cc(F)ccc1C4 [Compound 36],2.4,5.8,60.1,18
C[C@H]1CN(C2CC2)C(=O)c2c(O)c3c(=O)n4nc(c3n21)C(=O)N(C)CCCCCOc1cc(F)ccc1C4 [Compound 37],0.8,8.8,109.5,22
CCN1CCn2c(c(O)c3c(=O)n4nc(c32)C(=O)N(C)CCCCCOc2cc(F)ccc2C4)C1=O [Compound 38],1.2,6.8,106.3,29
CCN1C[C@H](C)n2c(c(O)c3c(=O)n4nc(c32)NCCCNC(=O)c2cc(F)ccc2C4)C1=O [Compound 39],1.1,4.6,2.8,3370
